From US20020019378A1, “COMPOUNDS” (priority 1997, published 2002)
Where two headings read alike, the source gives them in different places.

Tests used:
[1] = test system: lactonase enzyme purified from human plasma; type: biochemical; conditions: for Restoration of lactonase activity in the presence of EDTA and EGTA: salt added at 100 mM
Method: The enzyme activity purified according to A. above was tested with classical inhibitors in order to establish to which enzyme family it belongs. Also, it was investigated whether a divalent cation was required as a co-factor, as disclosed in W. N. Fishbein et al, Journal of Biological Chemistry 1966, 241(21), 4835-4841.

[2] = Stability in human plasma test method; type: in vitro ADME; conditions: 37° C.
Method: The stability of various of the compounds of the Examples in human plasma was tested using the following ‘stability in human plasma’ test method: 500 μl aliquots of human plasma in screw capped polypropylene tubes were preincubated at 37° C. in a waterbath for 5 minutes. The plasma samples were then spiked with 5 μl of test compound (nominally 5 mg/ml in DMSO). Aliquots (100 μl ) were removed immediately and after 5 minutes and mixed with an equal volume of acetonitrile. The samples were centrifuged and the supernatants were transferred to autosampler vials for HPLC and half-life analysis.
(§1) In the HPLC procedure, aliquots (20 μl) of all the supernatants were injected onto a Zorbax Rx C8 column (250×4.6mm; Hichrom). The column was maintained at 40° C. and eluted at a flow rate of 1.0 mL/min with a mobile phase of acetonitrile: 50 mM ammonium formate (65:35) adjusted to pH 4.2 with formic acid. Detection was by UV absorbance at 240 nm, and chromatographic peak areas for both parent and metabolite were measured
To determine the half-life, for each compound peak areas were plotted against time on a log-linear scale, and the half lives determined by extrapolation or interpolation of a straight line joining two points.

[3] = Stability in human lung S9; type: in vitro ADME; conditions: human lung S9 diluted 1:1 with phosphate buffer pH 7.4, NADPH, 37° C.
Method: The stability of the compound of Examples 4 and 6 in a model human lung environment was assessed using the following test protocol: Incubations were carried out, at 37° C., in 500 μL volumes of human lung S9 diluted 1:1 with 10 mM phosphate buffer pH 7.4 to which was added 50 μl of 30 mg/ml (Aq) NADPH. The reactions were started by the addition of 5 μl of test compound (nominally 5 mg/ml solution in DMSO). Aliquots (100 μl) were removed immediately and after 1 hour and mixed with an equal volume of acetonitrile to stop the reaction. Samples were centrifuged and the supernatants were transferred to autosampler vials for HPLC analysis and half-life analysis using methods identical to those described in the ‘stability in human plasma’ test protocol described above. Control incubations containing no lung S9 were also included.

[4] = target: T1, Human Glucocorticoid Receptor (Homo sapiens, UniProt P04150); assay: Functional in vitro glucocorticoid activity assay: Hela cells stably transfected with sPAP reporter gene under MMTV LTR promoter; type: cell-based; conditions: 72 hours incubation, values given as 'less than (about)', read-out: EC50 (sPAP transcription, glucocorticoid activity)
T1 construct: endogenous in cells; host or cells: HeLa cells stably transfected with an MMTV-LTR sPAP reporter
T1 sequence (P04150 1-777): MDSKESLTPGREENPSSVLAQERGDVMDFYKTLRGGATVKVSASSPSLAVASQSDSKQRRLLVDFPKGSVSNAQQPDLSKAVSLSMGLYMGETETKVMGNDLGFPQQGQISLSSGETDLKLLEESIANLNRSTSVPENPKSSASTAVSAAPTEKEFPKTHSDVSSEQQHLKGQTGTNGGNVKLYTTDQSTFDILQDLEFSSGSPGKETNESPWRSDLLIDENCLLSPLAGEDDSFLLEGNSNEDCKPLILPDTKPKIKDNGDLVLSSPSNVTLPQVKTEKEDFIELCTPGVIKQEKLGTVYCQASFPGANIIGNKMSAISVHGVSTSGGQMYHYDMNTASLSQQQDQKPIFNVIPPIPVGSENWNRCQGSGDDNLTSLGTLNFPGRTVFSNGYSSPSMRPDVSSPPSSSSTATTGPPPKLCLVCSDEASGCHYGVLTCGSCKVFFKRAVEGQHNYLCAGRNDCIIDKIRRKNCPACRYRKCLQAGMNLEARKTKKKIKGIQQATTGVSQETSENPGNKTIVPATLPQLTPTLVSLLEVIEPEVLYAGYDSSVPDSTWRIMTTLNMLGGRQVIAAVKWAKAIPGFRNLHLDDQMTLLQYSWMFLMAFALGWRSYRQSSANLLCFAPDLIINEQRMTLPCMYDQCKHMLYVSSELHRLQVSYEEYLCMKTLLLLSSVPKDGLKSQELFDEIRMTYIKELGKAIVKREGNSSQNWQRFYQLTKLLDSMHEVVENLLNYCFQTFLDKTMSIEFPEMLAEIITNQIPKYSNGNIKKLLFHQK
Text: The functional assay used was a modification of the method described by T. S Berger et al, of J. of Steroid Biochem. Molec. Biol. 1992, 41 (3-8), 733-738, “Interaction of Glucocorticoid analogues with the Human Glucocorticoid Receptor”. Thus, Hela cells were stably transfected with a detectable reporter gene (secreted placental alkaline phosphatase, sPAP) under the control of a glucocorticoid response promoter (the LTR of the mouse mammary tumour virus, MMTV). Various concentrations of standard (dexamethasone) or compounds of the invention were incubated with transfected Hela cells for 72 hours. At the end of the incubation, substrate ([…]) for sPAP was added and the product measured by a spectrophotometric method. Increased absorbance reflected increased sPAP transcription and concentration-response lines were constructed such that EC50-values could be estimated.

human serum paraoxonase = human serum paraoxonase (Homo sapiens, UniProt P27169); assay: Hydrolysis by human serum paraoxonase (enzymatic hydrolysis test method); type: in vitro ADME; conditions: 5% bovine serum albumin, 20 mM CaCl2, 37° C.
Method: The compounds herein have relatively short half-lives in blood in vitro. A test method for determining the half-life of the compounds under defined enzymatic hydrolysis conditions in vitro is now described. The test method is believed to provide a suitable indicator as to effects in vivo. In the test method, the hydrolysis of test compounds by a lactonase enzyme is monitored using RP HPLC with UV detection.
The ‘enzymatic hydrolysis test method’ is as follows: Incubations are carried out in 1 ml volumes in an aqueous medium containing 5% bovine serum albumin in the presence of 20 mM CaCl2. The solutions are preincubated at 37° C. for 5 minutes before the addition of the test compound (5 μl of a 5 mg/ml solution in DMSO) and then lactonase enzyme (10 μl to the 1 ml incubations). Control incubations containing no enzyme are also included. The enzymatic hydrolysis is monitored by removal of aliquots and quenching the reaction by the addition of an equal volume of acetonitrile. The samples are vortex mixed, then centrifuged and the supernatants are transferred to autosampler vials for HPLC analysis.
as §1, with “In a suitable” for “In the”, “of” for “of all”, “supernatants are” for “supernatants were”, “column is” for “column was”, “Detection is” for “Detection was”, “metabolite are measured.” for “metabolite were measured”
In a preferred aspect, the half-life of each compound may be determined by a method in which peak areas are plotted against time on a log-linear scale, and the half lives determined by extrapolation or interpolation of a straight line joining two points.
The above described ‘enzymatic hydrolysis test method’ employs lactonase enzyme. Suitable forms of lactonase enzyme include human serum paraoxonase or a recombinant form thereof, or purified lactonase, obtained from human plasma as described hereinafter. Purification of human serum paraoxonase is described by C E Furlong et al, Chem.Biol.Interactions, Vol 87, p35-48, (1993) and recombinant human serum paraoxonase is described in International Patent application No. WO 96/01322
The susceptibility to hydrolysis by human serum paraoxonase of certain of the compounds of the Examples was assessed using the test protocol of the ‘enzymatic hydrolysis test method’ described herein.

Chain of human serum paraoxonase (P27169 whole entry): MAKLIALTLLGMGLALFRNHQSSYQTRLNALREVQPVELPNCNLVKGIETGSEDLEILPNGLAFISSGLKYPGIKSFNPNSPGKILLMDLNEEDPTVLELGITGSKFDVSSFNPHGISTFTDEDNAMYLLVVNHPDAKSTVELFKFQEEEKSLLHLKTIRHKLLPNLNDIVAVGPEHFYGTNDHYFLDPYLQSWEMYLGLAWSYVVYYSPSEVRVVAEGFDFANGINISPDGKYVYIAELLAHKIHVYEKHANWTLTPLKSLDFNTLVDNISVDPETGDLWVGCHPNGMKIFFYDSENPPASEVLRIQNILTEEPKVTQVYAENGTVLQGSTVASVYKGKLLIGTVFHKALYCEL

With [Cl-].[Cl-].[Mg+2] [MgCl2] the “Restoration of lactonase activity in the presence of EDTA and EGTA” value [1] was “not restored”.

In the case of Nc1c(Cl)cc(C(O)CNCCCSC2CCOC2=O)cc1Cl.O=C(O)C(F)(F)F (stereo not shown) [Example 6, 3-[3-[2-(4-Amino-3,5-dichlorophenyl)-2-hydroxyethylamino]propylsulfanyl]-dihydro-furan-2-one trifluoroacetate], the half-life at 49.5 µg/mL [2] is reported as less than 10 min and the half-life at 45 µg/mL [3] is reported as greater than 60 min.

With CNC(=O)Oc1ccc2c(c1)[C@]1(C)CCN(C)[C@@H]1N2C [eserine] the “Inhibition of lactonase activity” value ([1]; inhibitor at 50 mM) was “not inhibited”.

With O=C(O)CN(CCOCCOCCN(CC(=O)O)CC(=O)O)CC(=O)O [EGTA] the “Inhibition of lactonase activity” value ([1]; inhibitor at 1 mM) was “totally inhibited”.

With CCC(=O)OC1(C(=O)SC2COC(=O)O2)C(C)CC2C3CC(F)C4=CC(=O)C=CC4(C)C3(F)C(O)CC21C (single isomer, unassigned) [Example 7 isomer A, 6α,9α-Difluoro-11β-hydroxy-16α-methyl-3-oxo-17α-propionyloxy-androsta-1,4-diene-17β-carbothioic acid S-(2-oxo-1,3-dioxolan-4-yl) ester] the EC50 [4] was less than 500 nM and the “Hydrolysis by human serum paraoxonase” value (human serum paraoxonase) was “hydrolysed”.

With [Ca+2].[Cl-].[Cl-] [CaCl2] the “Restoration of lactonase activity in the presence of EDTA and EGTA” value [1] was “fully restored”.

For O=S(=O)([O-])[O-].[Zn+2] [zinc sulphate], the “Inhibition of lactonase activity” value ([1]; inhibitor at 1 mM) was “totally inhibited”.

CCC(=O)O[C@]1(C(=O)SCC2CCOC2=O)[C@H](C)C[C@H]2[C@@H]3C[C@H](F)C4=CC(=O)C=C[C@]4(C)[C@@]3(F)[C@@H](O)C[C@@]21C (single isomer, unassigned) [Example 2, 6α,9α-Difluoro-11β-hydroxy-16α-methyl-3-oxo-17α-propionyloxy-androsta-1,4-diene-17β-carbothioic acid S-(2-oxo-tetrahydro-furan-3-ylmethyl) ester] gave an EC50 [4] of less than 250 nM.

With C[C@@H]1C[C@H]2[C@@H]3C[C@H](F)C4=CC(=O)C=C[C@]4(C)[C@@]3(F)[C@@H](O)C[C@]2(C)[C@]12OC(=O)SC2=O [Example 1, 6α,9α-Difluoro-11β-hydroxy-16α-methyl-17-spiro[androsta-1,4-diene-17,5′-[1,3]oxathiolane]-2′,3,4′-trione] the EC50 [4] was less than 250 nM.

Work on CCC(=O)O[C@]1(C(=O)SCc2oc(=O)oc2C)[C@H](C)C[C@H]2[C@@H]3C[C@H](F)C4=CC(=O)C=C[C@]4(C)[C@@]3(F)[C@@H](O)C[C@@]21C [Example 10, 6α,9α-Difluoro-11β-hydroxy-16α-methyl-3-oxo-17α-propionyloxy-androsta-1,4-diene-17β-carbothioic acid S-(5-methyl-2-oxo-1,3-dioxol-4-ylmethyl) ester] yielded an EC50 [4] of less than 500 nM and a half-life at 49.5 µg/mL [2] of less than 10 min.

In the case of O=C(O)CN(CCN(CC(=O)O)CC(=O)O)CC(=O)O [EDTA], the “Inhibition of lactonase activity” value [1] is reported as “totally inhibited”.

With O=C(O)c1cc[c]([Hg][Cl])cc1 [p-chloromercuribenzoate (PCMB), p-chloromercuribenzoate] the “Inhibition of lactonase activity” value ([1]; inhibitor at 1 mM) was “slightly inhibited”.

For CSC(=O)[C@@]1(OC(=O)CSC2COC(=O)C2)[C@H](C)C[C@H]2[C@@H]3C[C@H](F)C4=CC(=O)C=C[C@]4(C)[C@@]3(F)[C@@H](O)C[C@@]21C (stereo partly drawn) [Example 3, 6α,9α-Difluoro-11β-hydroxy-16α-methyl-3-oxo-17α-(2-oxo-tetrahydro-furan-4-ylsulfanyl-acetoxy)-androsta-1,4-diene-17β-carbothioic acid methyl ester], the EC50 [4] was less than 250 nM, the half-life at 49.5 µg/mL [2] was less than 10 min and the “Hydrolysis by human serum paraoxonase” value (human serum paraoxonase) was “hydrolysed”.

With C[C@]12C=CC(=O)C=C1CC[C@H]1[C@@H]3C[C@H]4CC(=O)O[C@@]4(C(=O)CO)[C@@]3(C)C[C@H](O)[C@@]12F [Example 5, 9α-Fluoro-11β,17α,21-trihydroxy-3,20-dioxo-pregna-1,4-diene-16α-acetic acid γ-lactone] the EC50 [4] was less than 250 nM.

For O=S(=O)(F)Cc1ccccc1 [phenylmethylsulphonyl fluoride (PMSF), phenylmethylsulphonyl fluoride], the “Inhibition of lactonase activity” value ([1]; inhibitor at 10 mM) was “not inhibited”.

For CCC(=O)OC1(C(=O)OC2COC(=O)O2)C(C)CC2C3CC(F)C4=CC(=O)C=CC4(C)C3(F)C(O)CC21C (single isomer, unassigned; isomer a) [Example 9 isomer A, 6α,9α-Difluoro-11β-hydroxy-16α-methyl-3-oxo-17α-propionyloxy-androsta-1,4-diene-17β-carboxylic acid O-(2-oxo-1,3-dioxolan-4-yl) ester], the “Hydrolysis by human serum paraoxonase” value (human serum paraoxonase) was “hydrolysed”.

For CCC(=O)OC1(C(=O)OCc2oc(=O)oc2C)C(C)CC2C3CC(F)C4=CC(=O)C=CC4(C)C3(F)C(O)CC21C (stereo not drawn) [Example 12, 6α,9α-Difluoro-11β-hydroxy-16α-methyl-3-oxo-17α-propionyloxy-androsta-1,4-diene-17β-carboxylic acid O-(5-methyl-2-oxo-1,3-dioxol-4-ylmethyl) ester], the “Hydrolysis by human serum paraoxonase” value (human serum paraoxonase) was “hydrolysed”.
